Legend:
[1] = tested on: melanoma cell lines with characterized TERT promoter status (19 cell lines); assay: 6-point 72 h MTS proliferation assay, WT versus promoter mutant melanoma cell lines; type: cell-based, human
Procedure: FIGS. 13A-13C are a set of graphs showingselective reduction in viability (A) and hTERT expression (B) in melanoma cells carrying hTERT core promotor mutations. NHM-002 (normal human melanocytes) and a G124A mutant cell line were treated with vehicle, 1.25, 2.5, and 5 μM GTC365 for 72 h. Viability was reduced in hTERT mutant melanoma cells by 50% (left). […] (C) Differential response to GTC365 in WT and promoter mutant cell lines.
Next, to assess the selectivity of GTC365 for hTERT-dependent cancer cells relative to normal precursorcells, we compared the effects of a range of […] on viability at 72 h in normal humanmelanocytes (NHM-002) relative to those of UACC-903, aG124A mutant (FIG. 13A). […] To confirm that the reduction in cell viability was aresult of hTERT downregulation, we performed reverse transcription and qPCR to measure the mRNA level of hTERT expression in cells treated with DMSO or 5 μMGTC365. hTERT expression was reduced by 41% in themelanoma cell line after 72 h but was undetectable in normalmelanocytes, even in the absence of GTC365 (FIG. 13B). Finally, tobroadly assess the selectivity of GTC365 for hTERT promotermutant versus WT cells, we conducted a 6-point 72 h MTSproliferation assay to determine EC50s in 14 additional melanoma cell lines with characterized TERT promoter status([…]) (FIG. 13C). […]

[2] = tested on: BCL2 mRNA in WT and G146A melanoma cells; assay: qPCR of BCL2 mRNA in melanoma cells; type: cell-based, human; conditions: 72 h
Procedure: Cell cultures. MCF7 and melanoma (UACC 383) cells were cultured in media of RPMI-1640 with 10% FBS and 1% penicillin/streptomycin. For melanoma cells UACC 2512, UACC 3090, UACC 1729, and UACC 2528, 20% FBS was included in the RPMI media instead of 10% FBS. Cells were incubated at 37° C. with 5% CO2.
qPCR. MCF7 and melanoma cells were treated with GTC365 and BRACO-19 for 72 h. Total RNA was extracted using an RNeasy mini-prep kit (Qiagen) and quantitated by measuring absorbance at 260 nm. cDNA was synthesized using a Takara PrimeScript™ RT Reagent Kit with gDNA eraser and then used as a template for qPCR. The qPCR was performed using Kapa Probe Fast qPCR Master Mix with ABI Taqman probes of hTERT (Hs00972656_m1), BCL2 (HS00608023_m1, FAM-labeled) or MYC (Hs00153408_m1), and GAPDH (Hs02758991_g1, VIC-labeled). The Ct values were measured by running Rotor-Gene Q, and the relative quantity of hTERT, BCL2, and MYC mRNA was obtained compared to GAPDH as an internal control.
To determine the cellular effect of GTC365 on proliferation as well as suppression of the activation of hTERT by G124A, G124/125A, G138/139A, and G146A mutants, melanoma cell lines were used alongside a WT cell line. All mutants increased the mRNA level of hTERT, compared to WT melanoma cells, in the 6.6-34-fold range. […]

[3] = tested on: caspase-3; assay: Caspase assay in MCF7 cells; type: cell-based, human; conditions: 0.5-1 μM, 48 h, relative to DMSO
Procedure: Caspase assay. MCF7 cells in a 6-well plate were treated with GTC365 for 48 h. The caspase-3 assay was conducted using an Apoalert Caspase 3 Fluorescent Assay Kit (Clontech) with DEVD-AFC as a substrate of capase-3 following the manufacturer's instruction. Fluorescence intensity of released AFC was measured using a BioTek Synergy HT with excitation at 400 nm and emission at 505 nm. The relative caspase-3 activity compared to the DMSO was obtained.
Indeed at 0.5-1 μM, the BAX/BCL2 ratio was increased by over 2-fold and the capase-3 activity was increased by 47% (FIGS. 11 and 12).

[4] = tested on: G146A 5-12 G-quadruplex; assay: CD kinetics, temperature-jump, G146A; type: biochemical, human; conditions: 2 equiv
Procedure: (§1) FIGS. 10A and 10B are a set of graphs showing (A) comparison of kinetics of initial folding rate of the WT 5-12 G-quadruplex with GTC365 and BRACO-19 by the temperature-jump method. (B) Enhanced initial folding rate of the 5-12 G-quadruplexes carrying different hTERT mutants by GTC365. The time-course CD signal of preheated oligo with compound or DMSO in a buffer containing 10 mM Tris-HCl (pH 7.5) and 5 mM KCl was monitored at 262 nm and 25° C.
(§2) For the kinetics analysis using the temperature-jump method, theoligo in a buffer containing 10 mM Tris-HCl (pH 7.5) was heated forl min at 95° C., and then a mixture of KCl and compound was addedand incubated for 1 min. Meanwhile, the CD cuvette was also heatedat 95° C. As soon as the sample in the CD cuvette at the hightemperature was placed in the CD chamber, a time-dependent CDsignal at 262 nm was recorded immediately. The initial folding ratewas determined by one-phase association curve fitting (eq 1) of thekinetics curve using GraphPad Prism 5: Y=Y0+(Plateau−Y0)*(1−e^−kx) (1) where Y is the CD signal at any time point x, Y0 is the Y value whentime (x) is zero, plateau is the Y value at infinite time, and k is the rateconstant.
(§3) To evaluate the comparative effects of GTC365 relative to BRACO-19 on the cooperative folding process, we carried out two different experiments. […]

[5] = tested on: G138/139A 5-12 G-quadruplex; assay: CD kinetics, temperature-jump, G138/139A; type: biochemical, human; conditions: 2 equiv
Procedure: as §1, §2, §3

N=C(N)NCCCS(=O)(=O)Nc1ccc(Nc2c3ccccc3nc3cc([N+](=O)[O-])ccc23)cc1 [GTC365]
response (EC50) in WT versus mutant melanoma cell lines [1]: significant differential response | mRNA level of BCL2 [2]: decreased | increase of caspase-3 activity [3]: 47% | increase of initial folding rate [4]: 0.054 s⁻¹ | effect on initial folding rate [5]: insignificant

Reference: US10556860B2, “hTERT modulators and methods of use” (Arizona Board of Regents on Behalf of the University of …, priority 2015, dated 2020)
